Test results from US20130345205A1, “SUBSTITUTED BICYCLIC ARALKYL PYRAZOLE LACTAM ANALOGS AS ALLOSTERIC MODULATORS OF MGLUR5 RECEPTORS” (Vanderbilt University, priority 2012, published 2013).

Legend:
human mGluR5 = human mGluR5 (Homo sapiens, UniProt P41594); assay: Cell-based functional Ca2+ mobilization assay (FDSS), potentiation of glutamate EC20 response; details: H10H cell-line (HEK, recombinant human mGluR5); for Emax: glutamate EC20, maximum average response at a single concentration, percent of maximal glutamate response; for EC50: positive allosteric modulation in presence of glutamate EC20, concentration in mol/L
From the text: Human mGluR5a cDNA in pCMV6-XL6 mammalian expression plasmid was purchased from OriGene Technologies, Inc. (catalogue number SC326357) and subcloned into pcDNA3.1(−). Human embryonic kidney (HEK) 293A cells were then transfected with human mGluR5a pcDNA3.1(−) using LipofectAmine2000 (Invitrogen) and monoclones were selected and tested for functional response using a Ca^2+ mobilization assay. Monoclones were named for the species (“H” for human) plus the location on the plate (e.g. “10H”).
HEK cells transfected with the human mGluR5a receptor (H10H or H12H cell line) were plated at 15,000 cells/well in clear-bottomed poly-D-lysine-coated assay plates (BD Falcon) in glutamate-glutamine-free growth medium and incubated overnight at 37° C. and 5% CO2. Cell-lines used were either the H10H or H12H cell-lines expressing the human mGluR5 receptor. The following day, the growth medium was removed and the cells were washed with assay buffer containing 1× Hank's balanced salt solution (Invitrogen, Carlsbad, Calif.), 20 mM HEPES, 2.5 mM probenecid, pH 7.4 and left with 20 μL of this reagent. Following this step, the cells were loaded with calcium indicator dye, fluo-4 AM, to a final concentration of 2 μM and incubated for 40-45 min at 37° C. The dye solution was removed and replaced with assay buffer. Cell plates were held for 10-15 min at room temperature and were then loaded into the Functional Drug Screening System 6000 (FDSS 6000, Hamamatsu, Japan).
After establishment of a fluorescence baseline for about 3 seconds, the compounds of the present invention were added to the cells, and the response in cells was measured. 2.3 minutes later an EC20 concentration of the mGluR5 receptor agonist glutamate was added to the cells, and the response of the cells was measured for about 1.7 minutes. All test compounds were dissolved and diluted to a concentration of 10 mM in 100% DMSO and then serially diluted into assay buffer for a 2× stock solution in 0.6% DMSO; stock compounds were then added to the assay for a final DMSO concentration of 0.3% after the first addition to the assay well. Calcium fluorescence measures were recorded as fold over basal fluorescence; raw data was then normalized to the maximal response to glutamate. Potentiation of the agonist response of the mGluR5 receptor in the present invention was observed as an increase in response to submaximal concentrations of glutamate in the presence of compound compared to the response to glutamate in the absence of compound.
The concentration-response curves of compounds of the present invention, obtained in the presence of EC20 of mGluR5 receptor agonist glutamate to determine positive allosteric modulation, were generated using Microsoft Excel with IDBS XLFit add-ins. The raw data file containing all time points was used as the data source in the analysis template. This was saved by the FDSS as a tab-delimited text file. Data were normalized using a static ratio function (F/F0) for each measurement of the total 350 values per well divided by each well's initial value. Data was then reduced as to peak amplitudes (Max-Initial Min) using a time range that starts approximately 1 second after the glutamate EC20 addition and continues for approximately 40 seconds. This is sufficient time to capture the peak amplitude of the cellular Calcium response. Individual amplitudes were expressed as % EMax by multiplying each amplitude by 100 and then dividing the product by the mean of the amplitudes derived from the glutamate ECMax-treated wells. pEC50 values for test compounds were generated by fitting the normalized values versus the log of the test compound concentration (in mol/L) using a 4 parameter logistic equation where none of the parameters were fixed. Each of the three values collected at each concentration of test compound were weighted evenly. Individual values falling outside the 95% prediction limits of the curve fit were automatically excluded from the fit. […]

Sequence of human mGluR5 (P41594 21-1180 isoform P41594-2 limits assumed): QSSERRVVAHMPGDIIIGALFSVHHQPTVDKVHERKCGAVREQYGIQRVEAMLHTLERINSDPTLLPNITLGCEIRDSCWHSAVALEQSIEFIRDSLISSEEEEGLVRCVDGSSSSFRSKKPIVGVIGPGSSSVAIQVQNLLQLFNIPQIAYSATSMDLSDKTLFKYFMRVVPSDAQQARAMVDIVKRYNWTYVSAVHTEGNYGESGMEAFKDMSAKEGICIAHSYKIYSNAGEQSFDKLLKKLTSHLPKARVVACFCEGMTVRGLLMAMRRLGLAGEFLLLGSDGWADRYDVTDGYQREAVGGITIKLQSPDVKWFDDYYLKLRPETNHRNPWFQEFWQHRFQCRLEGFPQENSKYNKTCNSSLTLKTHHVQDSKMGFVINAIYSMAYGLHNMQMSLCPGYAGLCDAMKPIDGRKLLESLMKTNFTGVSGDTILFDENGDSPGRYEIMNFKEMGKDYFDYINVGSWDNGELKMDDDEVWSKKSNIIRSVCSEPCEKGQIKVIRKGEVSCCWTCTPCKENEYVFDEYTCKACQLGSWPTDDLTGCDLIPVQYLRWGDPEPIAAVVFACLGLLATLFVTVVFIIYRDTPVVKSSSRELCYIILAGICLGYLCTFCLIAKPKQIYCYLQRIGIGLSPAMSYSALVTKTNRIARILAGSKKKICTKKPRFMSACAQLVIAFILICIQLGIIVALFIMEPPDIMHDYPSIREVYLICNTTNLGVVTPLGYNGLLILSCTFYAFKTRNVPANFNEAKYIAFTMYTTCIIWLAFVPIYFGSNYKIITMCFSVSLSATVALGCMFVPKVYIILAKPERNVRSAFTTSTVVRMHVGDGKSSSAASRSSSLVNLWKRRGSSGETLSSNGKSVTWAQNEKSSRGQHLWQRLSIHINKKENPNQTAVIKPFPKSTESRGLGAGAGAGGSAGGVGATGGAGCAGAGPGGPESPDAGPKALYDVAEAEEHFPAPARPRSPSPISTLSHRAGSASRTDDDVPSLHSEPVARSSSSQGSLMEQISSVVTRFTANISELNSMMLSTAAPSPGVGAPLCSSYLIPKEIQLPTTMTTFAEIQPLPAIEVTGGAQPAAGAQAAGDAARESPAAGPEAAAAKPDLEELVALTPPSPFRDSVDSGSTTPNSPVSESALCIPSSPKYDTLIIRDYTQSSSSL

O=C1c2cc(COc3ccccc3)nn2CCCN1Cc1ccccc1 [Example B2, 5-benzyl-2-(phenoxymethyl)-5,6,7,8-tetrahydro-4H-pyrazolo[1,5-a][1,4]diazepin-4-one]
melting point: 94.6 °C
Emax (human mGluR5): 64%
EC50 (human mGluR5): 87.1 nM

Cc1cccc(CN2CCn3nc(COc4ccccc4)cc3C2=O)n1 [Example B3, 5-[(6-methylpyridin-2-yl)methyl]-2-(phenoxymethyl)-6,7-dihydropyrazolo[1,5-a]pyrazin-4(5H)-one]
melting point: 113.4 °C
Emax (human mGluR5): 68%
EC50 (human mGluR5): 302 nM

O=C1c2cc(COc3ccccc3)nn2CCN1Cc1ccc(F)cn1 [Example B5, 5-[(5-fluoropyridin-2-yl)methyl]-2-(phenoxymethyl)-6,7-dihydropyrazolo[1,5-a]pyrazin-4(5H)-one]
melting point: 126.5 °C
Emax (human mGluR5): 69%
EC50 (human mGluR5): 550 nM

O=C1c2cc(COc3ccccc3)nn2CCN1Cc1ccccc1 [Example B7, 5-benzyl-2-(phenoxymethyl)-6,7-dihydropyrazolo[1,5-a]pyrazin-4(5H)-one]
melting point: 91.5 °C
Emax (human mGluR5): 69%
EC50 (human mGluR5): 49 nM

O=C1c2cc(COc3ccccn3)nn2CCN1Cc1ccccc1 [Example B9, 5-benzyl-2-[(pyridin-2-yloxy)methyl]-6,7-dihydropyrazolo[1,5-a]pyrazin-4(5H)-one]
melting point: 124.7 °C
Emax (human mGluR5): 62%
EC50 (human mGluR5): 347 nM

O=C1c2cc(COc3cccc(F)c3)nn2CCN1Cc1ccccc1 [Example B11, 5-benzyl-2-[(3-fluorophenoxy)methyl]-6,7-dihydropyrazolo[1,5-a]pyrazin-4(5H)-one]
melting point: 104.9 °C
Emax (human mGluR5): 63%
EC50 (human mGluR5): 46.8 nM

COc1cnc(CN2CCn3nc(COc4ccccc4)cc3C2=O)nc1 [Example B12]
melting point: > 300 °C
Emax (human mGluR5): 59.5%
EC50 (human mGluR5): 30.9 nM

CC(c1cccnc1)N1CCn2nc(COc3ccccc3)cc2C1=O (stereo not drawn) [Example B13]
melting point: > 300 °C (dec.)
Emax (human mGluR5): 60%
EC50 (human mGluR5): 1660 nM

O=C1c2cc(COc3ccccc3)nn2CCN1Cc1ccccn1 [Example B17]
melting point: 75.3 °C
Emax (human mGluR5): 69.5%
EC50 (human mGluR5): 1120 nM

O=C1c2cc(COc3ccccc3)nn2CCN1Cc1cccnc1 [Example B18]
melting point: 123.4 °C
Emax (human mGluR5): 63%
EC50 (human mGluR5): 1910 nM

O=C1c2cc(COc3ccccc3)nn2CCN1Cc1ccccc1F [Example B19]
melting point: 110.6 °C
Emax (human mGluR5): 69.5%
EC50 (human mGluR5): 43.7 nM

O=C1c2cc(COc3ccccc3)nn2CCN1Cc1cccc(F)c1 [Example B20]
melting point: 95 °C
Emax (human mGluR5): 65%
EC50 (human mGluR5): 47.9 nM

O=C1c2cc(COc3ccccc3)nn2CCN1Cc1ccc(F)c(F)c1 [Example B21]
melting point: 133.2 °C
Emax (human mGluR5): 68%
EC50 (human mGluR5): 77.6 nM

O=C1c2cc(COc3ccccc3)nn2CCN1Cc1ccc(F)cc1F [Example B22]
melting point: 129.8 °C
Emax (human mGluR5): 69%
EC50 (human mGluR5): 61.7 nM

O=C1c2cc(COc3ccccc3)nn2CCN1Cc1cccc(F)c1F [Example B23]
melting point: 122.8 °C
Emax (human mGluR5): 72.5%
EC50 (human mGluR5): 31.6 nM

O=C1c2cc(COc3ccccc3)nn2CCN1Cc1cc(F)ccc1F [Example B24]
melting point: 113.6 °C
Emax (human mGluR5): 71%
EC50 (human mGluR5): 120 nM

COc1ccc(CN2CCn3nc(COc4cccc(C)n4)cc3C2=O)cc1 [Example B29]
melting point: 91.2 °C
Emax (human mGluR5): 37%
EC50 (human mGluR5): > 10000 nM

COc1ccc(CN2CCn3nc(COc4cc(C)ccn4)cc3C2=O)cc1 [Example B30]
melting point: > 300 °C
Emax (human mGluR5): 61%
EC50 (human mGluR5): > 10000 nM

COc1ccc(CN2CCn3nc(COc4ccnc(C)c4)cc3C2=O)cc1 [Example B33]
melting point: 117.1 °C
Emax (human mGluR5): 30%
EC50 (human mGluR5): > 10000 nM

COc1ccc(CN2CCn3nc(COc4cc(C)nc(C)c4)cc3C2=O)cc1 [Example B35]
melting point: 164.8 °C
Emax (human mGluR5): 17%
EC50 (human mGluR5): > 31600 nM

COc1cccc(CN2CCn3nc(COc4ccccc4)cc3C2=O)c1 [Example B36]
melting point: 82.5 °C
Emax (human mGluR5): 65%
EC50 (human mGluR5): 107 nM

CC1(C)CN(Cc2ccccc2)C(=O)c2cc(COc3ccccc3)nn21 [Example B45]
melting point: 112.6 °C
Emax (human mGluR5): 66%
EC50 (human mGluR5): 178 nM

O=C1c2cc(COc3ccccc3)nn2CCN1Cc1ccccc1Cl [Example B46]
melting point: 111.2 °C
Emax (human mGluR5): 75%
EC50 (human mGluR5): 26.3 nM

O=C1c2cc(COc3ccccc3)nn2CCN1Cc1cccc(Cl)c1 [Example B47]
melting point: 218 °C
Emax (human mGluR5): 76%
EC50 (human mGluR5): 55 nM

O=C1c2cc(COc3ccccc3)nn2CCN1Cc1ccc(Cl)cc1 [Example B48]
melting point: 169 °C
Emax (human mGluR5): 65%
EC50 (human mGluR5): 155 nM

Cc1ccnc(OCc2cc3n(n2)CCN(Cc2ccccc2)C3=O)c1 [Example B62]
melting point: 75.4 °C
Emax (human mGluR5): 39%
EC50 (human mGluR5): 759 nM

Cc1ccccc1CN1CCn2nc(COc3ccccc3)cc2C1=O [Example B63]
melting point: 189.6 °C
Emax (human mGluR5): 70%
EC50 (human mGluR5): 33.9 nM

Cc1cccc(CN2CCn3nc(COc4ccccc4)cc3C2=O)c1 [Example B64]
melting point: 95.3 °C
Emax (human mGluR5): 61%
EC50 (human mGluR5): 47.9 nM

Cc1ccc(CN2CCn3nc(COc4ccccc4)cc3C2=O)cc1 [Example B65]
melting point: 164.9 °C
Emax (human mGluR5): 75%
EC50 (human mGluR5): 145 nM

COc1cc(CN2CCn3nc(COc4ccccc4)cc3C2=O)ccc1F [Example B66]
melting point: 132.1 °C
Emax (human mGluR5): 64%
EC50 (human mGluR5): 204 nM

COc1cccc(F)c1CN1CCn2nc(COc3ccccc3)cc2C1=O [Example B67]
melting point: 87.6 °C
Emax (human mGluR5): 68%
EC50 (human mGluR5): 195 nM

COc1c(Cl)cccc1CN1CCn2nc(COc3ccccc3)cc2C1=O [Example B68]
melting point: 116 °C
Emax (human mGluR5): 65.5%
EC50 (human mGluR5): 17.8 nM

O=C1c2cc(COc3ccccc3F)nn2CCN1Cc1ccccc1 [Example B69]
melting point: 104.2 °C
Emax (human mGluR5): 69%
EC50 (human mGluR5): 209 nM

COc1cncc(CN2CCn3nc(COc4ccccc4)cc3C2=O)n1 [Example B71]
melting point: 96 °C
Emax (human mGluR5): 73%
EC50 (human mGluR5): 525 nM

N#Cc1cccc(CN2CCn3nc(COc4ccccc4)cc3C2=O)c1 [Example B72]
melting point: 117.4 °C
Emax (human mGluR5): 81%
EC50 (human mGluR5): 229 nM

CN(C)c1cccc(CN2CCn3nc(COc4ccccc4)cc3C2=O)n1 [Example B74]
melting point: 71.8 °C
Emax (human mGluR5): 69%
EC50 (human mGluR5): 95.5 nM

COc1cccnc1CN1CCn2nc(COc3ccccc3)cc2C1=O [Example B75]
melting point: 132.4 °C
Emax (human mGluR5): 71%
EC50 (human mGluR5): 1150 nM

Cc1cncc(CN2CCn3nc(COc4ccccc4)cc3C2=O)n1 [Example B77]
melting point: 120.4 °C
Emax (human mGluR5): 66%
EC50 (human mGluR5): 2290 nM

Cc1nc(CN2CCn3nc(COc4ccccc4)cc3C2=O)ccc1F [Example B78]
melting point: 114.2 °C
Emax (human mGluR5): 70%
EC50 (human mGluR5): 295 nM

Cc1cc(CN2CCn3nc(COc4ccccc4)cc3C2=O)ncc1F [Example B82]
melting point: 129.8 °C
Emax (human mGluR5): 75.5%
EC50 (human mGluR5): 355 nM
